For this assay, the system named is CsgA gene expression (csgBAC promoter-GFP reporter) in E. coli UTI89. Nature of the assay: In vitro live cell fluorescent reporter assay of CsgA transcription (Reporter Assay). It counts as cell-based. The conditions noted are these: Escherichia coli; for IC50: read-out: Reporter Assay Abs IC50 (μM), median Abs IC50 in the CsgA reporter assay, N/A = maximum expression reduction is <50% of control. The method in brief: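 Chromosomal single-copy csgBAC promoter–GFP reporter in E. coli UTI89, started at OD600 0.003 in YESCA broth with compound (0.14–100 μM, 1% DMSO), 20 h at 27 °C. GFP (ex 485/em 525 nm) background-subtracted and normalized to vehicle; IC50 and X[50] from curve fits. OD600 tracked growth effects.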

Where [1] appears, read: read-out: Reporter Assay Abs IC50, activity range, class symbol.
The mark [2] stands for this setting: read-out: Reporter Assay Abs IC50 (activity range), median Abs IC50 in the CsgA reporter assay, class symbol.

pIC50: −log10 of the molar value. Where two headings read alike, the source gives them in different places.

With `CCCN1CC(C(=O)O)n2c(c(-c3cccc(C(F)(F)F)c3)c(Cc3cccc4ccccc34)c(O)c2=O)S1(=O)=O` (centres unmarked) [Compound 141, 7-hydroxy-8-(naphthalen-1-ylmethyl)-6-oxo-2-propyl-9-(3-(trifluoromethyl)phenyl)-3,4-dihydro-2H,6H-pyrido[1,2-e][1,2,5]thiadiazine-4-carboxylic acid 1,1-dioxide], the IC50 turned out to be 2.7 µM. In addition, the pIC50 under setting [1] was 5.35 to 5.89.

Consider `CC1(C(=O)O)CNS(=O)(=O)c2c(-c3cccc(C(F)(F)F)c3)c(Cc3cccc4ccccc34)cc(=O)n21` (centres unmarked) [Compound 042, 4-methyl-8-(naphthalen-1-ylmethyl)-6-oxo-9-(3-(trifluoromethyl)phenyl)-3,4-dihydro-2H,6H-pyrido[1,2-e][1,2,5]thiadiazine-4-carboxylic acid 1,1-dioxide], for which the IC50 was determined as 3.3 µM. Besides, the pIC50 under setting [2] is 5.35 to 5.89.

For the molecule `O=C(O)[C@@H]1CN(Cc2ccccc2)c2c(-c3cccc(C(F)(F)F)c3)c(Cc3cccc4ccccc34)c(Cl)c(=O)n21` (single isomer, unassigned) [Compound 004a], the IC50 was found to be 0.2 µM. For the same molecule, the negative-log IC50 (pIC50) under setting [1] was > 5.89.

As for `CC1(C)Sc2c(-c3cccc(C(F)(F)F)c3)c(Cc3cccc4ccccc34)nc(=O)n2C1C(=O)O` (centres unmarked) [Compound 059, 2,2-dimethyl-7-(naphthalen-1-ylmethyl)-5-oxo-8-(3-(trifluoromethyl)phenyl)-2,3-dihydro-5H-thiazolo[3,2-c]pyrimidine-3-carboxylic acid], the IC50 was found to be 21.1 µM. In addition, under setting [2], the pIC50 was < 5.00.

In the case of `NC(=O)c1c(Cc2cccc3ccccc23)c(-c2cccc(C(F)(F)F)c2)c2n(c1=O)C(C(=O)O)CN(CCCO)S2(=O)=O` (centres unmarked) [Compound 184, 7-carbamoyl-2-(3-hydroxypropyl)-8-(naphthalen-1-ylmethyl)-6-oxo-9-(3-(trifluoromethyl)phenyl)-3,4-dihydro-2H,6H-pyrido[1,2-e][1,2,5]thiadiazine-4-carboxylic acid 1,1-dioxide], the IC50 is 2.7 µM. Also, under setting [1], the pIC50 was 5.35 to 5.89.

As for `O=C(O)C1CSc2c(-c3cccc(C(F)(F)F)c3)c(Cc3cccc4ccccc34)cc(=S)n21` (centres unmarked) [Compound 054, 7-(naphthalen-1-ylmethyl)-5-thioxo-8-(3-(trifluoromethyl)phenyl)-2,3-dihydro-5H-thiazolo[3,2-a]pyridine-3-carboxylic acid], the IC50 came to 6.3 µM. Under setting [2], the pIC50 is 5.00 to 5.34.

For the molecule `NC(=O)c1c(Cc2cccc3ccccc23)c(-c2cccc(C(F)(F)F)c2)c2n(c1=O)C(C(=O)O)CN(C1CCCC1)S2(=O)=O` (centres unmarked) [Compound 176, 7-carbamoyl-2-cyclopentyl-8-(naphthalen-1-ylmethyl)-6-oxo-9-(3-(trifluoromethyl)phenyl)-3,4-dihydro-2H,6H-pyrido[1,2-e][1,2,5]thiadiazine-4-carboxylic acid 1,1-dioxide], the IC50 came to 1.3 µM. Besides, under setting [1], the pIC50 was 5.35 to 5.89.

Turning to `O=C(O)C1CN(Cc2ccccc2)c2c(-c3cccc(Br)c3)c(Cc3cccc4ccccc34)c(Cl)c(=O)n21` (centres unmarked) [Compound 198, 1-benzyl-8-(3-bromophenyl)-6-chloro-7-(naphthalen-1-ylmethyl)-5-oxo-1,2,3,5-tetrahydroimidazo[1,2-a]pyridine-3-carboxylic acid], the IC50 worked out at 5 µM. Further, the pIC50 under setting [1] is 5.00 to 5.34.

Take `O=C(O)C1CSc2c(-c3cccc(C(F)(F)F)c3)c(Cc3cccc4ccccc34)c(CO)c(=O)n21` (centres unmarked) [Compound 057, 6-(hydroxymethyl)-7-(naphthalen-1-ylmethyl)-5-oxo-8-(3-(trifluoromethyl)phenyl)-2,3-dihydro-5H-thiazolo[3,2-a]pyridine-3-carboxylic acid]: the IC50 worked out at 7.1 µM. The pIC50 under setting [2] is 5.00 to 5.34.

As to `O=C(O)C1CN(Cc2ccc(-c3ccccc3)cc2)c2c(-c3cccc(C(F)(F)F)c3)c(Cc3cccc4ccccc34)c(Cl)c(=O)n21` (centres unmarked) [Compound 202, 1-([1,1′-biphenyl]-4-ylmethyl)-6-chloro-7-(naphthalen-1-ylmethyl)-5-oxo-8-(3-(trifluoromethyl)phenyl)-1,2,3,5-tetrahydroimidazo[1,2-a]pyridine-3-carboxylic acid], the IC50 is 0.8 µM. Moreover, the pIC50 under setting [1] is > 5.89.

As for `O=C(O)c1c(CCc2ccccc2)sc2c(-c3cccc(C(F)(F)F)c3)c(Cc3cccc4ccccc34)cc(=O)n12` [Compound 062, 7-(naphthalen-1-ylmethyl)-5-oxo-2-phenethyl-8-(3-(trifluoromethyl)phenyl)-5H-thiazolo[3,2-a]pyridine-3-carboxylic acid], the IC50 stood at 0.9 µM. Also, under setting [2], the pIC50 was > 5.89.

Regarding `CNC(=O)CCCN1CC(C(=O)O)n2c(c(-c3cccc(C(F)(F)F)c3)c(Cc3cccc4ccccc34)cc2=O)S1(=O)=O` (centres unmarked) [Compound 037, 2-(4-(methylamino)-4-oxobutyl)-8-(naphthalen-1-ylmethyl)-6-oxo-9-(3-(trifluoromethyl)phenyl)-3,4-dihydro-2H,6H-pyrido[1,2-e][1,2,5]thiadiazine-4-carboxylic acid 1,1-dioxide], the IC50 came to 23.6 µM. Also, the pIC50 under setting [2] was < 5.00.

Take `O=C(O)C1CN(Cc2ccccc2)c2c(-c3cccc(C(F)(F)F)c3)c(Cc3cccc4ccccc34)c(Cl)c(=O)n21` (centres unmarked) [Compound 004, 1-benzyl-6-chloro-7-(naphthalen-1-ylmethyl)-5-oxo-8-(3-(trifluoromethyl)phenyl)-1,2,3,5-tetrahydroimidazo[1,2-a]pyridine-3-carboxylic acid]: the IC50 came to 0.7 µM. Under setting [1], the pIC50 is > 5.89.

Take `O=C(O)C1CN(Cc2ccccc2CO)c2c(-c3cccc(C(F)(F)F)c3)c(Cc3cccc4ccccc34)c(Cl)c(=O)n21` (centres unmarked) [Compound 181, 6-chloro-1-(2-(hydroxymethyl)benzyl)-7-(naphthalen-1-ylmethyl)-5-oxo-8-(3-(trifluoromethyl)phenyl)-1,2,3,5-tetrahydroimidazo[1,2-a]pyridine-3-carboxylic acid]: the IC50 was 2 µM. The pIC50 under setting [1] was 5.35 to 5.89.

As to `O=C(O)C1CSc2c(-c3cccc(C(F)(F)F)c3)c(C(F)(F)c3cccc4ccccc34)cc(=O)n21` (centres unmarked) [Compound 073, 7-(difluoro(naphthalen-1-yl)methyl)-5-oxo-8-(3-(trifluoromethyl)phenyl)-2,3-dihydro-5H-thiazolo[3,2-a]pyridine-3-carboxylic acid], the IC50 is 6 µM. The pIC50 under setting [2] was 5.00 to 5.34.

Regarding `O=C(O)C1CN(Cc2cccnc2)c2c(-c3cccc(C(F)(F)F)c3)c(Cc3cccc4ccccc34)c(Cl)c(=O)n21` (centres unmarked) [Compound 169, 6-chloro-7-(naphthalen-1-ylmethyl)-5-oxo-1-(pyridin-3-ylmethyl)-8-(3-(trifluoromethyl)phenyl)-1,2,3,5-tetrahydroimidazo[1,2-a]pyridine-3-carboxylic acid], the 50% inhibitory concentration (IC50) was determined as 3.8 µM. Moreover, the pIC50 under setting [1] was 5.35 to 5.89.

`CCCNC(=O)c1c(Cc2cccc3ccccc23)c(-c2cccc(C(F)(F)F)c2)c2n(c1=O)C(C(=O)O)CN(C)S2(=O)=O` (centres unmarked) [Compound 154, 2-methyl-8-(naphthalen-1-ylmethyl)-6-oxo-7-(propylcarbamoyl)-9-(3-(trifluoromethyl)phenyl)-3,4-dihydro-2H,6H-pyrido[1,2-e][1,2,5]thiadiazine-4-carboxylic acid 1,1-dioxide]: the IC50 worked out at 6.1 µM. Besides, the pIC50 under setting [1] is 5.00 to 5.34.

Consider `CC(C)CN1CC(C(=O)O)n2c1c(-c1cccc(C(F)(F)F)c1)c(Cc1cccc3ccccc13)c(Cl)c2=O` (centres unmarked) [Compound 164, 6-chloro-1-isobutyl-7-(naphthalen-1-ylmethyl)-5-oxo-8-(3-(trifluoromethyl)phenyl)-1,2,3,5-tetrahydroimidazo[1,2-a]pyridine-3-carboxylic acid], for which the IC50 turned out to be 0.9 µM. Under setting [1], the pIC50 was > 5.89.

Take `O=C(O)C1CN(CCCCCO)c2c(-c3cccc(C(F)(F)F)c3)c(Cc3cccc4ccccc34)c(Cl)c(=O)n21` (centres unmarked) [Compound 199, 6-chloro-1-(5-hydroxypentyl)-7-(naphthalen-1-ylmethyl)-5-oxo-8-(3-(trifluoromethyl)phenyl)-1,2,3,5-tetrahydroimidazo[1,2-a]pyridine-3-carboxylic acid]: the IC50 was 6.9 µM. For the same molecule, the pIC50 under setting [1] is 5.00 to 5.34.

On to `O=C(O)C1CN(CCCO)c2c(-c3cccc(C(F)(F)F)c3)c(Cc3cccc4ccccc34)c(Cl)c(=O)n21` (centres unmarked) [Compound 197, 6-chloro-1-(3-hydroxypropyl)-7-(naphthalen-1-ylmethyl)-5-oxo-8-(3-(trifluoromethyl)phenyl)-1,2,3,5-tetrahydroimidazo[1,2-a]pyridine-3-carboxylic acid], for which the IC50 stood at 19.3 µM. Under setting [1], the pIC50 is < 5.00.

On to `O=C(O)C1COc2c(-c3cccc(C(F)(F)F)c3)c(Cc3cccc4ccccc34)cc(=O)n21` (centres unmarked) [Compound 064, 7-(naphthalen-1-ylmethyl)-5-oxo-8-(3-(trifluoromethyl)phenyl)-2,3-dihydro-5H-oxazolo[3,2-a]pyridine-3-carboxylic acid], for which the IC50 was 45.3 µM. Under setting [2], the pIC50 is < 5.00.

`O=C(O)C1CN(CCCCCCCN2CC(C(=O)O)n3c2c(-c2cccc(C(F)(F)F)c2)c(Cc2cccc4ccccc24)c(Cl)c3=O)c2c(-c3cccc(C(F)(F)F)c3)c(Cc3cccc4ccccc34)c(Cl)c(=O)n21` (centres unmarked) [Compound 188, 1,1′-(heptane-1,7-diyl)bis(6-chloro-7-(naphthalen-1-ylmethyl)-5-oxo-8-(3-(trifluoromethyl)phenyl)-1,2,3,5-tetrahydroimidazo[1,2-a]pyridine-3-carboxylic acid)]: the IC50 was 0.8 µM. Also, under setting [1], the pIC50 is > 5.89.

The record behind these values is patent US20230131899A1, “INHIBITORS OF MICROBIALLY INDUCED AMYLOID” (Axial Therapeutics, Inc., priority 2020, published 2023).
